The record followed here is patent US20230382920A1, “SHMT Inhibitors” (The Trustees of Princeton University, priority 2020, published 2023).

The nature of data set [1]: Mouse liver microsome assay (metabolic stability). In kind it is in vitro ADME. Particulars: mouse liver microsomes; for half-life at 2 µM: in vitro half-life; for microsomal CLint at 2 µM: in vitro intrinsic clearance, read-out: Relative Clint. The procedure: Example 6. Mouse Liver Microsome Assay
Metabolic stability of several compounds in mouse liver microsomes was tested. Briefly, a master solution was prepared according to Table 31.
Two separate experiments were performed: an experiment with cofactors and an experiment without cofactors. In the experiment with cofactors 40 μL of 10 mM NADPH and 40 μL of 20 mM UDPGA were added to the incubations. The final concentrations of microsomes, NADPH and UDPGA were 0.5 mg/mL, 1 mM and 2 mM, respectively. In the experiment without cofactors 10 μL of 20 mg/mL liver microsomes and 80 μL of ultra-pure H2O were added to the incubations. The final concentration of microsomes was 0.5 mg/mL. The mixture was pre-warmed at 37° C. for 5 minutes.
The reaction was started with the addition of 4 μL of 200 μM control compound or test compound solutions. Verapamil was used as positive control in this study. The final concentration of test compound was 2 μM and the final concentration of control compound was 1 μM. The incubation solution was incubated in water bath at 37° C.
Aliquots of 50 μL were taken from the reaction solution at 0.5, 5, 15, 30, 45 and 60 minutes. The reaction was stopped by the addition of five volumes of cold acetonitrile with IS (100 nM alprazolam, 200 nM caffeine and 100 nM tolbutamide). Samples were centrifuged at 3,220 g for 40 minutes. Aliquot of 100 μL of the supernatant was mixed with 100 μL of ultra-pure H2O and then subject to LC-MS/MS analysis.
All calculations were carried out using Microsoft Excel. Peak areas were determined from extracted ion chromatograms. The slope value, k, was determined by linear regression of the natural logarithm of the remaining percentage of the parent drug versus incubation time curve. The in vitro half-life (in vitro t½) was determined from the slope value:
Conversion of the in vitro t1/2(min) into the in vitro intrinsic clearance (in vitro CLint, in μL/min/mg protein) was done using the following equation (mean of duplicate determinations): […]
In general terms: Microsomes from liver hold many membrane-bound enzymes, among them those of drug oxidation.

Data set [2] has as its system HCT116. The data set is described as follows: HCT116 formate rescue assay (with sodium formate 1 mM). In kind it is cell-based. The note with it: Homo sapiens, HCT-116, 96 h, HCT116 growth. The procedure:
(§1) Example 5. HCT116 Growth Inhibition and Formate Rescue Assays
(§2) 3,000 Cells were plated in each well of a 96-well plate with 80 μL of DMEM media supplemented with 10% dFBS, and incubated for 24 hours. Drugs with or without sodium formate (1 mM) were then added to each well to a final volume of 100 μL. Cell growth was measured as fluorescence intensity by resazurin after four days. In short, resazurin was added to each well to a final concentration of 10 μg·mL^−1. After incubation for one hour, fluorescence was measured by a Synergy HT plate reader (BioTek Instruments).

The subject of data set [3] is HCT116. Put plainly: HCT116 growth inhibition assay. Type of data set: cell-based. Particulars: without formate. The procedure:
as §1, §2

Molecules are shown by their SMILES.

With `Cc1nnc(N2CC(C#Cc3cc(CO)cc(C4(C(C)C)C(C#N)=C(N)Oc5[nH]nc(C)c54)c3)C2)o1` (stereo not drawn) [KDG-0472], in data set [1], the half-life at 2 µM was no less than 20 min and the microsomal CLint at 2 µM is no more than 70 µL/min/mg. For the same compound, the IC50 in data set [2] was less than 100 nM. Moreover, the IC50 entry in data set [3] is reported as “C″”.
In the case of `Cc1nnc(N2CCC(C#Cc3cc(CO)cc(C4(C(C)C)C(C#N)=C(N)Oc5[nH]nc(C)c54)c3)CC2)o1` (stereo not drawn) [KDG-0478], in data set [1], the half-life at 2 µM lay within 5 to 10 min and the microsomal CLint at 2 µM was in the range of 70 to 100 µL/min/mg. In addition, the IC50 in data set [2] was greater than 5000 nM. The IC50 result in data set [3] is on record as “C″”.
`Cc1n[nH]c2c1C(c1cc(C#CC34CC(NC(=O)OC(C)(C)C)(C3)C4)cc(CO)c1)(C(C)C)C(C#N)=C(N)O2` (stereo not drawn) [KDG-0502, tert-butyl N-[3-[2-(3-[6-amino-5-cyano-4-isopropyl-3-methyl-1H-pyrano[2,3-c]pyrazol-4-yl]-5-(hydroxymethyl)phenyl)ethynyl]bicyclo[1.1.1]pentan-1-yl]carbamate]: in data set [1], the half-life at 2 µM was no less than 20 min and the microsomal CLint at 2 µM was no more than 70 µL/min/mg. Besides, the IC50 in data set [2] was less than 100 nM. In data set [3], the IC50 entry is listed as “B″”.

As a reminder, the half-life is how long it takes for the measured level to halve. Read a low half-life as rapid decline. Broadly, the IC50 is the concentration needed to halve the response being measured.
